Measurements published in patent US7629438B2, “Group of synthetic antimicrobial peptides” (priority 2002, dated 2009).
Values after ≈ are worked out from the molar mass of the structure shown. Where two headings read alike, the source gives them in different places. Ends that are not written are not given here. Peptide text beside a SMILES is read from it.

Legend:
[1] = system: Bacillus pumilus CMCC63202; format: cell-based
Procedure: (§1) The minimum inhibitory concentrations (MIC) of the invention peptides were determined using methods described below:
(§2) The strain was recovered, inoculated into sloped medium, and grown overnight at 37° C. Typical clone selected were grown overnight at 37° C. in LB culture, diluted in the same medium to give concentrations of about 10^4-10^5 CFU/ml. The broth dilutions were set up in a 96-well microtiter plate by putting 100 μl of LB-S in every well. Added diluted peptide to every well (10 ul per well), cultured overnight at 37° C. The next day, the plates were scored for growth in the wells, and the MIC determined (In Yup Park et al.; FEBS Letters; 437 (1998) 258-262).

[2] = system: Candida albicans ATCC10231; format: cell-based
Procedure: as §1, §2

[3] = system: Escherichia coli ATCC8099; format: cell-based
Procedure: as §1, §2

[4] = system: Klebsiella pneumoniae CMCC46117; format: cell-based
Procedure: as §1, §2

[5] = system: Micrococcus lutea CMCC28001; format: cell-based
Procedure: as §1, §2

[6] = system: Micrococcus lysoleikticus S1.634; format: cell-based
Procedure: as §1, §2

[7] = system: Pseudomonas aeruginosa CMCC10104; format: cell-based
Procedure: as §1, §2

[8] = system: Saccharomyces cerevisiae ATCC9736; format: cell-based
Procedure: as §1, §2

[9] = system: Staphylococcus aureaus CMCC26003; format: cell-based
Procedure: as §1, §2

S. aureus CMCC26003 = format: in vivo, Kunming mouse; settings: for Inhibitory rate: S. aureus infected mice
Procedure: The infection model was Staphylococcus aureus infection in the Kunming mouse.
S. aureus CMCC26003 was cultured overnight, with moderate agitation, in Veal Infusion broth (Difco) and diluted in broth containing 5% hog gastric mucin (Difco). Male Kunming mice weighing approximately 20 grams were infected intraperitoneally with 10^6-10^7 viable cells. There were 3 mice in each treatment group. Antimicrobial peptide GK-1 was administered intravenously (in 0.1 ml 5% dextrose for injection), within 10 minutes of infection. Vancomycin was administered subcutaneously.

Bacillus subtilis DB430 = test: MIC assay, 96-well microtiter plate; format: cell-based; settings: Bacillus subtilis DB430 (G+)
Procedure: as §1, §2

CMCC50094 = test: MIC assay, 96-well microtiter plate; format: cell-based; settings: B Subacute sclerosing panencephalitis CMCC50094 (G−)
Procedure: as §1, §2

[10] = system: K562 (human chronic myeloid leukemia cell)
Procedure: (§3) To determine the inhibitory activity of the peptides against tumor cells, a MTT colorimetric assay was performed. Fifty percent inhibitory concentrations of the antimicrobial peptides against tumor cells and normal fibroblasts were determined. Tumor cell K562 (human chronic myeloid leukemia cell), Bcap-37 (human breast cancer cell), QGY-7703 (human hepatocellular carcinoma cell), LOVO colon cancer cell, and mouse NIH-3T3 fibroblast were selected. These cells were provided by the College of Life Sciences, Fudan University. Cells were grown in RPMI1-1640, containing 10% inactivated calf serum. Cells were transferred into the 96-well plate at 2*10^4 cells/well, and 150 μl was added in each well. After the 96-well plate were incubated overnight at 37, in 5% carbon dioxide, 20 μl diluted peptide solution was added to each well, then incubated for 3 days, 20 μl MTT solution was added to each well, and incubated at 37° C. for 4 hours, 40 μl, 002M HCl solution containing 20% SDS was added to each well to solve the purple crystal, and incubated overnight at 37° C. The absorbance at 570 nm was determined.

[11] = system: Bcap-37 (human breast cancer cell)
Procedure: as §3

[12] = system: QGY-7703 (human hepatocellular carcinoma cell)
Procedure: as §3

Procedure for LOVO colon cancer cell: as §3
Procedure for mouse NIH-3T3 fibroblast: as §3

CC[C@H](C)[C@@H]1NC(=O)CNC(=O)[C@H]([C@@H](C)CC)NC(=O)[C@H](CCCCN)NC(=O)[C@H](CCCCN)NC(=O)[C@H](Cc2ccccc2)NC(=O)[C@H](CC(C)C)NC(=O)[C@H](CCCCN)NC(=O)[C@H](Cc2c[nH]c3ccccc23)NC(=O)[C@H](CCCCN)NC(=O)[C@H](CCCCN)NC(=O)[C@H](CC(C)C)NC(=O)[C@H](CC(C)C)NC(=O)[C@H](CCCCN)NC(=O)[C@H](CCCNC(=N)N)NC(=O)[C@H](CC(C)C)NC(=O)CNC(=O)[C@H](CCCNC(=N)N)NC(=O)[C@H](CCCCN)NC(=O)[C@H](CC(C)C)NC(=O)[C@H](CC(C)C)NC(=O)[C@H](CCCNC(=N)N)NC(=O)CNC1=O [GK-20] (cyclo(KWKLFKKIGIGRLLKRGLRKLLK); ring closure inferred)
MIC [1]: 6 µg/mL (≈ 2.16 µM) | MIC [2]: 18 µg/mL (≈ 6.49 µM) | MIC [3]: 8 µg/mL (≈ 2.88 µM) | MIC [4]: 10 µg/mL (≈ 3.6 µM) | MIC [5]: 4 µg/mL (≈ 1.44 µM) | MIC [6]: 2 µg/mL (≈ 0.721 µM) | MIC [7]: 10 µg/mL (≈ 3.6 µM) | MIC [8]: 20 µg/mL (≈ 7.21 µM) | MIC [9]: 0.8 µg/mL (≈ 0.288 µM)

CN[C@H](CC(C)C)C(=O)N[C@H]1C(=O)N[C@@H](CC(N)=O)C(=O)N[C@H]2C(=O)N[C@H]3C(=O)N[C@H](C(=O)N[C@H](C(=O)O)c4cc(O)cc(O)c4-c4cc3ccc4O)[C@H](O)c3ccc(c(Cl)c3)Oc3cc2cc(c3O[C@@H]2O[C@H](CO)[C@@H](O)[C@H](O)[C@H]2O[C@H]2C[C@](C)(N)[C@H](O)[C@H](C)O2)Oc2ccc(cc2Cl)[C@H]1O [Vancomycin]
Inhibitory rate (S. aureus CMCC26003; 0.5 mg/kg s.c.): 0% | Inhibitory rate (S. aureus CMCC26003; 1.0 mg/kg s.c.): 40% | Inhibitory rate (S. aureus CMCC26003; 2.0 mg/kg s.c.): 80% | Inhibitory rate (S. aureus CMCC26003; 4.0 mg/kg s.c.): 100% | Inhibitory rate (S. aureus CMCC26003; 8.0 mg/kg s.c.): 100% | Effectiveness against S. aureus infection (protection of infected mice) (S. aureus CMCC26003; dosage of 4.5 mg/kg): 100%

KWKLFKKIGIGRLLKRGLRKLLK [GK-1]
MIC (Bacillus subtilis DB430): 4 µg/mL | MIC (CMCC50094): 4 µg/mL | MIC [1]: 0.5 µg/mL | MIC [2]: 8 µg/mL | MIC [3]: 1 µg/mL | MIC [4]: 2 µg/mL | MIC [5]: 2 µg/mL | MIC [6]: 1.0 µg/mL | MIC [7]: 10 µg/mL | MIC [8]: 14 µg/mL | MIC [9]: 0.4 µg/mL | inhibitory activity against tumor cells (IC50) [10]: 45 µg/mL | inhibitory activity against tumor cells (IC50) [11]: 52 µg/mL | inhibitory activity against tumor cells (IC50) [12]: 38 µg/mL | inhibitory activity against tumor cells (IC50) (LOVO colon cancer cell): 35 µg/mL | IC50 against normal fibroblasts (mouse NIH-3T3 fibroblast): >100 µg/mL

KWKLFKKIGIGRLLRRLLRRLLR [GK-2]
MIC (Bacillus subtilis DB430): 4 µg/mL | MIC (CMCC50094): 1 µg/mL | MIC [1]: 1 µg/mL | MIC [2]: 10 µg/mL | MIC [3]: 0.5 µg/mL | MIC [4]: 0.8 µg/mL | MIC [5]: 4 µg/mL | MIC [6]: 0.8 µg/mL | MIC [7]: 12 µg/mL | MIC [8]: 12 µg/mL | MIC [9]: 0.2 µg/mL | inhibitory activity against tumor cells (IC50) [10]: 56 µg/mL | inhibitory activity against tumor cells (IC50) [11]: 47 µg/mL | inhibitory activity against tumor cells (IC50) [12]: 44 µg/mL | inhibitory activity against tumor cells (IC50) (LOVO colon cancer cell): 32 µg/mL | IC50 against normal fibroblasts (mouse NIH-3T3 fibroblast): >100 µg/mL

RFKLFKKIPRLLRRGLRKVLK [GK-19]
MIC (Bacillus subtilis DB430): 2 µg/mL | MIC (CMCC50094): 1 µg/mL | MIC [1]: 10 µg/mL | MIC [2]: 16 µg/mL | MIC [3]: 2 µg/mL | MIC [4]: 2 µg/mL | MIC [5]: 10 µg/mL | MIC [6]: 4 µg/mL | MIC [7]: 4 µg/mL | MIC [8]: 12 µg/mL | MIC [9]: 1.0 µg/mL

RWKLFKKIEKVGRNVRDGLIKAGPAIAVIGQAKSL [cecropin A1, reference compound]
MIC (Bacillus subtilis DB430): 12 µg/mL | MIC (CMCC50094): 12 µg/mL | MIC [1]: 50 µg/mL | MIC [2]: 50 µg/mL | MIC [3]: 20 µg/mL | MIC [4]: 16 µg/mL | MIC [5]: 30 µg/mL | MIC [6]: 50 µg/mL | MIC [7]: 18 µg/mL | MIC [8]: 50 µg/mL | MIC [9]: 16 µg/mL

RWRLFKRIGIGRLLKRGLR [GK-3]
MIC (Bacillus subtilis DB430): 5 µg/mL | MIC (CMCC50094): 6 µg/mL | MIC [1]: 0.8 µg/mL | MIC [2]: 11 µg/mL | MIC [3]: 1.6 µg/mL | MIC [4]: 2 µg/mL | MIC [5]: 3 µg/mL | MIC [6]: 1.2 µg/mL | MIC [7]: 1.8 µg/mL | MIC [8]: 12 µg/mL | MIC [9]: 0.5 µg/mL | inhibitory activity against tumor cells (IC50) [10]: 13 µg/mL | inhibitory activity against tumor cells (IC50) [11]: 25 µg/mL | inhibitory activity against tumor cells (IC50) [12]: 21 µg/mL | inhibitory activity against tumor cells (IC50) (LOVO colon cancer cell): 31 µg/mL | IC50 against normal fibroblasts (mouse NIH-3T3 fibroblast): >100 µg/mL
